In patent US10647680B2, “Urea compound, preparation method therefor and medical use thereof” (Ancureall Pharmaceutical (Shanghai) Co., Ltd., priority 2016, dated 2020):
Several values for one entry are separate records, joined by “and”; a condition that tells them apart may be missing. Equal values may be shown once. Where a name gives a salt, the structure may show the parent alone. Read-outs that look alike come from different tables or passages of the source.

Tests used:
[1] = In vivo pharmacokinetics in rats; parameters: species or system rat
Experimental: The pharmacokinetic experiments in rats were performed using compound 77 of the present invention as a representative example.
Procedure: 6 SD male rats (˜200 g, purchased from Shanghai Sippr-BK Experimental Animal Co., Ltd) were selected and divided into two groups according to the experimental design table (Table 9). Animals were administered intravenously and orally. Dosing was performed once on the treating day and the doses were 5 mg/kg and 10 mg/kg, respectively.
Drug formulation method: the required amount of test sample was added to a certain volume of 40% (HP-β-CD) aqueous solution, and then stirred under heating (temperature 25-45° C.) until dissolution, then the same volume of deionized water was added and adjusted to pH 5 with NaOH, to prepare 20% HP-β-CD clear aqueous solution.
For the intravenous administration group, blood samples were taken from jugular veins before administration and 2 min, 5 min, 15 min, 30 min, 1 h, 2 h, 4 h, 6 h, 8 h, and 24 h after administration; for the oral administration group, blood samples were taken from jugular veins before administration and 5 min, 30 min, 1 h, 2 h, 4 h, 6 h, 8 h, 10 h, and 24 h. The collected blood samples were centrifuged to separate plasma within 30 min (centrifugation condition: 8000 rpm, 6 minutes, 2-8° C.). The plasma samples were stored at −80° C. in a freezer before assay. The plasma samples were used for LC-MS/MS method development and sample testing.
The pharmacokinetic parameters (AUC(0-t), AUC(0-∞), T1/2, MRT(0-∞), Cmax, Tmax and F) were calculated using WinNonlin Professional v5.2 (Pharsight USA). In addition, the bioavailability (F) was calculated by the following formula.

CYP2C9 = molecular target: T1, CYP2C9 (Homo sapiens, UniProt P11712); test: P450 enzyme inhibition, CYP2C9; assay type: in vitro ADME; settings: human liver microsomes
T1 construct: human liver microsomes (BD Gentest) (0.5 mg/mL); tissue BD Gentest; host or cells: human liver microsomes
Experimental: (§1) Eight cytochrome p450 enzyme inhibition reactions of human liver microsomes were performed using compound 77 of the present invention as a representative example.
(§2) The main reaction systems and processes: in 37° C. water bath, the test compounds (7 concentrations, 0, 0.25, 0.5, 5, 10, 25, and 50 uM; the final methanol concentration was 1% in the system), human liver microsomes (BD Gentest) (0.5 mg/mL) and reducing coenzyme II (Roche 10621706001) (1 mg/mL) and the corresponding cytochrome p450 enzyme probe substrate were co-incubated for 5 to 20 minutes. Among them, (1) the probe substrate for CYP1A2 was Phenacetin ([…]) (Sigma), and the selective inhibitor alpha-naphthoflavone (2 uM) (Sigma) was for parallel detection as positive control, and they were incubated for 20 minutes. (2) The probe substrate for CYP2b6 was Bupropion (40 uM) (Sigma) and the selective inhibitor Ticlopidine (10 uM) (Sigma) was for parallel detection as positive control, and they were incubated for 20 minutes. (3) The probe substrate of CYP2C8 was Amodiaquine (1 uM) (Sigma), and the selective inhibitor Montelukast (10 uM) (Sigma) was for parallel detection as positive control, and they were incubated for 20 minutes. (4) The probe substrate for CYP2C9 was Diclofenac (2.5 uM) (Sigma), and the selective inhibitor Sulphaphenazole (10 uM) (Sigma) was for parallel detection as positive control, and they were incubated for 20 minutes. (5) The probe substrate for CYP2C19 was Mephenytoin (40 uM) (Sigma), and the selective inhibitor Ticlopidine (10 uM) (Sigma) was for parallel detection as positive control, and they were incubated for 20 minutes. (6) The probe substrate for CYP2D6 was Dextromethorphan (5 uM) (Sigma), and the selective inhibitor Quinidine (10 uM) (Sigma) was for parallel detection as positive control, and they were incubated for 20 minutes. (7) The probe substrates for CYP3A4-T and CYP3A4-M were Testosterone (5 uM) (Sigma) and Midazolam (5 uM) (Sigma), respectively, and the selective inhibitor was Ketoconazole (1 uM) (Sigma), they were detected in parallel as positive control, and incubated for 5 minutes. The reaction system was quenched by adding methanol containing the corresponding internal standard. The internal standard compound was Tolbutamide (Sigma). The concentration of the corresponding metabolites was determined by LC/MS/MS. For the data analysis, the decrease in peak area of the metabolite of the sample after addition of compound 77 relative to the peak area of the metabolite of the solvent control sample was used to calculate the IC50 (concentration of the test substance at 50% inhibition). The percentages of peak areas of metabolites of CYP1A2, CYP2B6, CYP2C8, CYP2C9, 15CYP2C19, CYP2D6, CYP3A4-T, and CYP3A4-M probe substrates after addition of different concentrations of compound 77 and selective inhibitors relative to the solvent control peak areas were shown in the Table 7.

CYP2C19 = molecular target: T2, CYP2C19 (Homo sapiens, UniProt P33261); test: P450 enzyme inhibition, CYP2C19; assay type: in vitro ADME; settings: human liver microsomes
T2 construct: human liver microsomes (BD Gentest) (0.5 mg/mL); tissue BD Gentest; host or cells: human liver microsomes
Experimental: as §1, §2

[2] = SD rats, intravenously, 5 mg/kg, individual animals 101-103, listed as methanesulfonate of compound 77, 5 mg/kg
[3] = SD rats, orally, 10 mg/kg, individual animals 201-203, listed as methanesulfonate of compound 77, 10 mg/kg
[4] = male, SD, rat, plasma, iv, 5 mg/kg, intravenously, Mean
[5] = male, SD, rat, plasma, iv, 5 mg/kg, intravenously, individual animals 101-103
[6] = male, SD, rat, plasma, po, 10 mg/kg, orally, Mean
[7] = male, SD, rat, plasma, po, 10 mg/kg, orally, individual animals 201-203

T1 sequence (P11712 whole entry): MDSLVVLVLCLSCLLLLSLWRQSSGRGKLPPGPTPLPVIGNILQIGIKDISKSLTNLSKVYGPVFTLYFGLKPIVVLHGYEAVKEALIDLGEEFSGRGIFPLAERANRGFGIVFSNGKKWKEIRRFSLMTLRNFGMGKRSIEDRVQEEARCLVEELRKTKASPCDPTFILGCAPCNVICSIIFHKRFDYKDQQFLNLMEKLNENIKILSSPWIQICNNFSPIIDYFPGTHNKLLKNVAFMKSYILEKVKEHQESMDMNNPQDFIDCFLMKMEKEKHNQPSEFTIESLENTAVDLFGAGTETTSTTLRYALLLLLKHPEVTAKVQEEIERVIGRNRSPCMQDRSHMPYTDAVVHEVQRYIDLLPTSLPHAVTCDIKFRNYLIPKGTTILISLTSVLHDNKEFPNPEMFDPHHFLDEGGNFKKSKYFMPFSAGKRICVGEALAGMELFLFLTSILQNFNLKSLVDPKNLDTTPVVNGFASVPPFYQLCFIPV
T2 sequence (P33261 whole entry): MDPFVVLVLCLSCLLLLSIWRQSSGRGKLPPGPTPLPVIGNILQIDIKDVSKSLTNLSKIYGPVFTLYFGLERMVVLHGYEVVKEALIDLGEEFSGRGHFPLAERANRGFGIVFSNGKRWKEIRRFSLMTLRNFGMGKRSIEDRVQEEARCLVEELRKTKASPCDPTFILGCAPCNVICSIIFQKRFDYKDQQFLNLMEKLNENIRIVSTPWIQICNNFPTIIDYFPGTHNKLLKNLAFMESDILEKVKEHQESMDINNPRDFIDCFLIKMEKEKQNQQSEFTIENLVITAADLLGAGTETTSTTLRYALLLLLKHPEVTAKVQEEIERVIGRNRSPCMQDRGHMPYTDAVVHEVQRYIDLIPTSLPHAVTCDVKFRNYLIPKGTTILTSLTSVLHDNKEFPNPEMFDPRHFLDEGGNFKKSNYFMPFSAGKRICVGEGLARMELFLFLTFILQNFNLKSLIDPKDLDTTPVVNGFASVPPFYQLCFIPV

## COCCOc1ccc2c(c1)ncn2-c1ccc(NC(=O)Nc2cc(C(C)(C)C)n[nH]2)cc1 [Compound 77 Mesylate, 1-(5-tert-butyl-2H-pyrazol-3-yl)-3-{4-[5-(2-methoxyl-ethoxyl)-benzimidazol-1-yl]-phenyl}-urea]
[1]; [2]
  AUC(0-t): 14458 ng·h/mL and 13825 ng·h/mL
  AUC(0-∞): 14501 ng·h/mL and 13969 ng·h/mL
  CL: 345 mL/h/kg and 358 mL/h/kg
  Cmax: 20795 ng/mL and 17312 ng/mL
  MRT(0-t): 3.86 h and 4.21 h
  Vss: 1355 mL/kg and 1599 mL/kg
  Vz: 1473 mL/kg and 2010 mL/kg
  t½: 2.96 h and 3.89 h
[1]; [3]
  AUC(0-t): 7249 ng·h/mL and 6927 ng·h/mL
  AUC(0-∞): 7294 ng·h/mL and 7067 ng·h/mL
  Cmax: 1082 ng/mL and 1095 ng/mL
  MRT(0-t): 5.07 h and 5.45 h
  t½: 3.36 h and 4.53 h
[1]; male, SD, rat, plasma, iv, 5 mg/kg, administered intravenously, 5 mg/kg, read-out: AUC(0-t)
  AUC(0-t): 14400 ng·h/mL
[1]; male, SD, rat, plasma, iv, 5 mg/kg, administered intravenously, 5 mg/kg, read-out: Cmax
  Cmax: 18700 ng/mL
[1]; male, SD, rat, plasma, iv, 5 mg/kg, intravenously, 5 mg/kg, Mean, read-out: AUC(0-t)
  AUC(0-t): 14400 ng·h/mL
[1]; male, SD, rat, plasma, iv, 5 mg/kg, intravenously, 5 mg/kg, Mean, read-out: Cmax
  Cmax: 18700 ng/mL
[1]; male, SD, rat, plasma, iv, 5 mg/kg, intravenously, 5 mg/kg, Mean, read-out: MRT (0-∞)
  MRT inf: 4.27 h
[1]; male, SD, rat, plasma, iv, 5 mg/kg, intravenously, 5 mg/kg, Mean, read-out: MRT(0-t)
  MRT last: 4.03 h
[1]; male, SD, rat, plasma, iv, 5 mg/kg, intravenously, 5 mg/kg, Mean, read-out: Vss
  Vd: 1.47 L/kg
[1]; male, SD, rat, plasma, iv, 5 mg/kg, intravenously, 5 mg/kg, Mean, read-out: Vz
  Vd: 1.8 L/kg
[1]; male, SD, rat, plasma, iv, 5 mg/kg, intravenously, 5 mg/kg, Mean, read-out: t½ (converted)
  half-life: 217 min
[1]; male, SD, rat, plasma, iv, 5 mg/kg, intravenously, 5 mg/kg, individual animals 101-103, read-out: AUC(0-t)
  AUC(0-t): 14900 ng·h/mL
[1]; male, SD, rat, plasma, iv, 5 mg/kg, intravenously, 5 mg/kg, individual animals 101-103, read-out: Cmax
  Cmax: 18000 ng/mL
[1]; male, SD, rat, plasma, iv, 5 mg/kg, intravenously, 5 mg/kg, individual animals 101-103, read-out: MRT (0-∞)
  MRT inf: 4.42 h
[1]; male, SD, rat, plasma, iv, 5 mg/kg, intravenously, 5 mg/kg, individual animals 101-103, read-out: MRT(0-t)
  MRT last: 4.04 h
[1]; male, SD, rat, plasma, iv, 5 mg/kg, intravenously, 5 mg/kg, individual animals 101-103, read-out: Vss
  Vd: 1.46 L/kg
[1]; male, SD, rat, plasma, iv, 5 mg/kg, intravenously, 5 mg/kg, individual animals 101-103, read-out: Vz
  Vd: 1.91 L/kg
[1]; male, SD, rat, plasma, iv, 5 mg/kg, intravenously, 5 mg/kg, individual animals 101-103, read-out: t½ (converted)
  half-life: 241 min
[1]; [4]
  AUC(0-inf): 14500 ng·h/mL
  clearance: 5.73 mL/min/kg
[1]; [5]
  AUC(0-inf): 15200 ng·h/mL
  clearance: 5.5 mL/min/kg
[1]; male, SD, rat, plasma, po, 10 mg/kg, administered orally, 10 mg/kg, read-out: AUC(0-t)
  AUC(0-t): 6770 ng·h/mL
[1]; male, SD, rat, plasma, po, 10 mg/kg, administered orally, 10 mg/kg, read-out: Cmax
  Cmax: 1050 ng/mL
[1]; male, SD, rat, plasma, po, 10 mg/kg, orally, 10 mg/kg, Mean, read-out: AUC(0-t)
  AUC(0-t): 6770 ng·h/mL
[1]; male, SD, rat, plasma, po, 10 mg/kg, orally, 10 mg/kg, Mean, read-out: Cmax
  Cmax: 1050 ng/mL
[1]; male, SD, rat, plasma, po, 10 mg/kg, orally, 10 mg/kg, Mean, read-out: MRT(0-t)
  MRT last: 5.38 h
[1]; male, SD, rat, plasma, po, 10 mg/kg, orally, 10 mg/kg, Mean, read-out: t½ (converted)
  half-life: 232 min
[1]; male, SD, rat, plasma, po, 10 mg/kg, orally, 10 mg/kg, individual animals 201-203, read-out: AUC(0-t)
  AUC(0-t): 6140 ng·h/mL
[1]; male, SD, rat, plasma, po, 10 mg/kg, orally, 10 mg/kg, individual animals 201-203, read-out: Cmax
  Cmax: 977 ng/mL
[1]; male, SD, rat, plasma, po, 10 mg/kg, orally, 10 mg/kg, individual animals 201-203, read-out: MRT(0-t)
  MRT last: 5.61 h
[1]; male, SD, rat, plasma, po, 10 mg/kg, orally, 10 mg/kg, individual animals 201-203, read-out: t½ (converted)
  half-life: 222 min
[1]; [6]
  AUC(0-inf): 6860 ng·h/mL
  MRT: 5.68 h
[1]; [7]
  AUC(0-inf): 6210 ng·h/mL
  MRT: 5.9 h
[1]; male, rat, plasma, po, SD rats, orally, 10 mg/kg, Mean
  Tmax: 2 h
[1]; male, rat, plasma, SD rats, oral 10 mg/kg versus intravenous 5 mg/kg
  bioavailability: 23.5%

## COCCOc1ccc2c(c1)ncn2-c1ccc(NC(=O)Nc2cc(C(C)(C)C)n[nH]2)cc1 [Compound 77, 1-(5-tert-butyl-2H-pyrazol-3-yl)-3-{4-[5-(2-methoxyl-ethoxyl)-benzimidazol-1-yl]-phenyl}-urea]
CYP2C9; Concentration 0.25 uM
  CYP2C9 Remaining %: 99.6%
CYP2C9; Concentration 0.5 uM
  CYP2C9 Remaining %: 104.5%
CYP2C9; Concentration 5 uM
  CYP2C9 Remaining %: 99.0%
CYP2C9; Concentration 10 uM
  CYP2C9 Remaining %: 90.9%
CYP2C9; Concentration 25 uM
  CYP2C9 Remaining %: 72.5%
CYP2C9; Concentration 50 uM
  CYP2C9 Remaining %: 39.9%
CYP2C9; read-out: half-inhibitory concentration (IC50) of CYP2C9
  IC50: 41.6 µM
CYP2C19; Concentration 0.25 uM
  CYP2C19 Remaining %: 104.2%
CYP2C19; Concentration 0.5 uM
  CYP2C19 Remaining %: 100.8%
CYP2C19; Concentration 5 uM
  CYP2C19 Remaining %: 106.9%
CYP2C19; Concentration 10 uM
  CYP2C19 Remaining %: 102.9%
CYP2C19; Concentration 25 uM
  CYP2C19 Remaining %: 91.3%
CYP2C19; Concentration 50 uM
  CYP2C19 Remaining %: 67.6%
CYP2C19; read-out: half-inhibitory concentration (IC50) of CYP2C19
  IC50: > 50 µM
